From patent publication US20230085307A1, “PYRIDAZINONE COMPOUND AND HERBICIDE” (NISSAN CHEMICAL CORPORATION, priority 2019, published 2023)

Columns and labels:
southern crabgrass = experiment: Test Example 5: herbicidal effect by foliage application, plastic box (Table 20, symbol F); assay type: in vivo, southern crabgrass (Digitaria ciliaris); details: foliage application; for F: southern crabgrass, herbicidal effect: three weeks after application
Procedure, shortened: (§1)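 Sow seeds spot-wise in sterilized diluvial soil; cover with ~1.5 cm soil. Grow 14 days in greenhouse, 25° C. to 30° C. Spray foliage with emulsion diluted to predetermined amount. Rate effect after 3 weeks.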

persian speedwell [1] = experiment: Test Example 5: herbicidal effect by foliage application, plastic box (Table 20, symbol R); assay type: in vivo, Persian speedwell (Veronica persica); details: foliage application; for R: persian speedwell, herbicidal effect: three weeks after application
Procedure, shortened: as §1

barnyard grass [2] = experiment: Test Example 4: herbicidal effect by soil treatment (Table 19, symbol H); assay type: in vivo, barnyard grass (Echinochloa crus-galli)
Procedure, shortened: (§2)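 Applied as a water-diluted emulsion, the compound was sprayed onto soil covering newly sown seeds. Evaluation came three weeks after application, in a greenhouse held at 25° C. to 30° C.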

green foxtail = experiment: Test Example 4: herbicidal effect by soil treatment (Table 19, symbol G); assay type: in vivo, green foxtail (Setaria viridis)
Procedure, shortened: as §2

velvetleaf = experiment: Test Example 4: herbicidal effect by soil treatment (Table 19, symbol M); assay type: in vivo, velvetleaf (Abutilon theophrasti)
Procedure, shortened: as §2

late watergrass = experiment: Test Example 1: herbicidal activity, application before weed generation under submerged conditions (Table 16, symbol A); assay type: in vivo, late watergrass (Echinochloa oryzicola)
Procedure, shortened: (§3)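 Emulsion formulation, water-diluted to set dose, was put onto the flooded surface (4 cm depth, alluvial soil) the same day weeds were sown and 2.5-leaf rice transplanted. After 3 weeks at 25-30 °C under glass, each species was rated 0 (≤5% kill) to 5 (≥90% kill).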

persian speedwell [3] = experiment: Test Example 4: herbicidal effect by soil treatment (Table 19, symbol R); assay type: in vivo, Persian speedwell (Veronica persica)
Procedure, shortened: as §2

barnyard grass [4] = experiment: Test Example 5: herbicidal effect by foliage application, plastic box (Table 20, symbol H); assay type: in vivo, barnyard grass (Echinochloa crus-galli); details: foliage application; for H: barnyard grass, herbicidal effect: three weeks after application
Procedure, shortened: as §1

blackgrass = experiment: Test Example 5: herbicidal effect by foliage application, plastic box (Table 20, symbol J); assay type: in vivo, blackgrass (Alopecurus myosuroides); details: foliage application; for J: blackgrass, herbicidal effect: three weeks after application
Procedure, shortened: as §1

oval-leafed pondweed = experiment: Test Example 1: herbicidal activity, application before weed generation under submerged conditions (Table 16, symbol C); assay type: in vivo, oval-leafed pondweed (Monochoria vaginalis)
Procedure, shortened: as §3

wild oat = experiment: Test Example 5: herbicidal effect by foliage application, plastic box (Table 20, symbol I); assay type: in vivo, wild oat (Avena fatua); details: foliage application; for I: wild oat, herbicidal effect: three weeks after application
Procedure, shortened: as §1

chickweed = experiment: Test Example 4: herbicidal effect by soil treatment (Table 19, symbol P); assay type: in vivo, common chickweed (Stellaria media)
Procedure, shortened: as §2

rice flat sedge = experiment: Test Example 3: herbicidal effect by foliage application, Wagner pot (Table 18, symbol E); assay type: in vivo, rice flat sedge (Cyperus iria)
Procedure, shortened: (§4)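 Plants were sown in alluvial soil held under 0.1–0.5 cm standing water and grown 14 days in a greenhouse at 25–30 °C. An emulsifiable formulation, water-diluted to the set dose, was then sprayed onto the foliage, and effects were scored three weeks later using previously defined criteria.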

redroot pigweed = experiment: Test Example 4: herbicidal effect by soil treatment (Table 19, symbol N); assay type: in vivo, redroot pigweed (Amaranthus retroflexus)
Procedure, shortened: as §2

barnyard grass [5] = experiment: Test Example 3: herbicidal effect by foliage application, Wagner pot (Table 18, symbol H); assay type: in vivo, barnyard grass (Echinochloa crus-galli)
Procedure, shortened: as §4

Japanese bulrush = experiment: Test Example 2: herbicidal activity, application during weed generation under submerged conditions (Table 17, symbol B); assay type: in vivo, Japanese bulrush (Schoenoplectus juncoides); details: application during weed generation, submerged conditions
Procedure, shortened: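 Herbicide emulsion, diluted with water to the chosen amount, is applied onto 4 cm floodwater over alluvial soil where the weeds were co-sown and raised at 25–30° C. Application timing: 1–2 leaves. Assessment: three weeks afterwards.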

[6] = 320 g/ha, 3 weeks after application

Cc1nn(C)c(=O)c(-c2c(-c3ccc(OCC4CC4)cc3)sc3ccccc23)c1O [1-142]
F: southern crabgrass, herbicidal effect (southern crabgrass; AAH 320 g/ha): 1 (Herbicidal rate of 5% or more and less than 20%) | R: persian speedwell, herbicidal effect (persian speedwell [1]; AAH 320 g/ha): 5 (Herbicidal rate of 90% or more (almost completely withered)) | H: barnyard grass, herbicidal effect rating (barnyard grass [2]; AAH 320 g/ha): 3 (Herbicidal rate of 40% or more and less than 70%) | G: green foxtail, herbicidal effect rating (green foxtail; AAH 320 g/ha): 0 (Herbicidal rate of 5% or less (almost no effect)) | M: velvetleaf, herbicidal effect rating (velvetleaf; AAH 320 g/ha): 3 (Herbicidal rate of 40% or more and less than 70%) | Herbicidal effect on A: late watergrass (grade 0-5) (late watergrass; 320 g/ha applied herbicide): 3 (Herbicidal rate of 40% or more and less than 70%) | R: persian speedwell, herbicidal effect rating (persian speedwell [3]; AAH 320 g/ha): 5 (Herbicidal rate of 90% or more (almost completely withered)) | H: barnyard grass, herbicidal effect (barnyard grass [4]; AAH 320 g/ha): 3 (Herbicidal rate of 40% or more and less than 70%) | J: blackgrass, herbicidal effect (blackgrass; AAH 320 g/ha): 0 (Herbicidal rate of 5% or less (almost no effect)) | Herbicidal effect on C: oval-leafed pondweed (grade 0-5) (oval-leafed pondweed; 320 g/ha applied herbicide): 5 (Herbicidal rate of 90% or more (almost completely withered)) | I: wild oat, herbicidal effect (wild oat; AAH 320 g/ha): 0 (Herbicidal rate of 5% or less (almost no effect)) | P: chickweed, herbicidal effect rating (chickweed; AAH 320 g/ha): 2 (Herbicidal rate of 20% or more and less than 40%) | herbicidal effect on E (rice flat sedge), rating 0-5 (rice flat sedge; 320 g/ha): 5 (Herbicidal rate of 90% or more (almost completely withered)) | N: redroot pigweed, herbicidal effect rating (redroot pigweed; AAH 320 g/ha): 4 (Herbicidal rate of 70% or more and less than 90%) | herbicidal effect on H (barnyard grass), rating 0-5 (barnyard grass [5]; 320 g/ha): 3 (Herbicidal rate of 40% or more and less than 70%) | herbicidal effect rating, B: Japanese bulrush (Japanese bulrush; AAH 320 g/ha): 2 (Herbicidal rate of 20% or more and less than 40%)

COCCOc1ccc(-c2sc3ccccc3c2-c2c(O)c(C)nn(C)c2=O)cc1 [1-148]
F: southern crabgrass, herbicidal effect (southern crabgrass; AAH 368 g/ha): 5 (Herbicidal rate of 90% or more (almost completely withered)) | R: persian speedwell, herbicidal effect (persian speedwell [1]; AAH 368 g/ha): 5 (Herbicidal rate of 90% or more (almost completely withered)) | H: barnyard grass, herbicidal effect rating (barnyard grass [2]; AAH 368 g/ha): 5 (Herbicidal rate of 90% or more (almost completely withered)) | G: green foxtail, herbicidal effect rating (green foxtail; AAH 368 g/ha): 5 (Herbicidal rate of 90% or more (almost completely withered)) | M: velvetleaf, herbicidal effect rating (velvetleaf; AAH 368 g/ha): 4 (Herbicidal rate of 70% or more and less than 90%) | Herbicidal effect on A: late watergrass (grade 0-5) (late watergrass; 368 g/ha applied herbicide): 3 (Herbicidal rate of 40% or more and less than 70%) | R: persian speedwell, herbicidal effect rating (persian speedwell [3]; AAH 368 g/ha): 5 (Herbicidal rate of 90% or more (almost completely withered)) | H: barnyard grass, herbicidal effect (barnyard grass [4]; AAH 368 g/ha): 5 (Herbicidal rate of 90% or more (almost completely withered)) | J: blackgrass, herbicidal effect (blackgrass; AAH 368 g/ha): 4 (Herbicidal rate of 70% or more and less than 90%) | Herbicidal effect on C: oval-leafed pondweed (grade 0-5) (oval-leafed pondweed; 368 g/ha applied herbicide): 3 (Herbicidal rate of 40% or more and less than 70%) | I: wild oat, herbicidal effect (wild oat; AAH 368 g/ha): 4 (Herbicidal rate of 70% or more and less than 90%) | P: chickweed, herbicidal effect rating (chickweed; AAH 368 g/ha): 5 (Herbicidal rate of 90% or more (almost completely withered)) | herbicidal effect on E (rice flat sedge), rating 0-5 (rice flat sedge; 368 g/ha): 5 (Herbicidal rate of 90% or more (almost completely withered)) | N: redroot pigweed, herbicidal effect rating (redroot pigweed; AAH 368 g/ha): 5 (Herbicidal rate of 90% or more (almost completely withered)) | herbicidal effect on H (barnyard grass), rating 0-5 (barnyard grass [5]; 368 g/ha): 5 (Herbicidal rate of 90% or more (almost completely withered)) | herbicidal effect rating, B: Japanese bulrush (Japanese bulrush; AAH 368 g/ha): 3 (Herbicidal rate of 40% or more and less than 70%)

Cc1nn(C)c(=O)c(-c2c(-c3ccc(OCCBr)cc3)sc3ccccc23)c1O [1-204]
effect on southern crabgrass (F) (southern crabgrass; [6]): 4 (Herbicidal rate of 70% or more and less than 90%) | effect on persian speedwell (R) (persian speedwell [1]; [6]): 5 (Herbicidal rate of 90% or more (almost completely withered)) | H: barnyard grass, herbicidal effect rating (barnyard grass [2]; AAH 320 g/ha): 0 (Herbicidal rate of 5% or less (almost no effect)) | G: green foxtail, herbicidal effect rating (green foxtail; AAH 320 g/ha): 0 (Herbicidal rate of 5% or less (almost no effect)) | M: velvetleaf, herbicidal effect rating (velvetleaf; AAH 320 g/ha): 0 (Herbicidal rate of 5% or less (almost no effect)) | Herbicidal effect on A: late watergrass (grade 0-5) (late watergrass; 320 g/ha applied herbicide): 3 (Herbicidal rate of 40% or more and less than 70%) | R: persian speedwell, herbicidal effect rating (persian speedwell [3]; AAH 320 g/ha): 4 (Herbicidal rate of 70% or more and less than 90%) | effect on barnyard grass (H) (barnyard grass [4]; [6]): 3 (Herbicidal rate of 40% or more and less than 70%) | effect on blackgrass (J) (blackgrass; [6]): 0 (Herbicidal rate of 5% or less (almost no effect)) | Herbicidal effect on C: oval-leafed pondweed (grade 0-5) (oval-leafed pondweed; 320 g/ha applied herbicide): 3 (Herbicidal rate of 40% or more and less than 70%) | effect on wild oat (I) (wild oat; [6]): 0 (Herbicidal rate of 5% or less (almost no effect)) | P: chickweed, herbicidal effect rating (chickweed; AAH 320 g/ha): 0 (Herbicidal rate of 5% or less (almost no effect)) | herbicidal effect on E (rice flat sedge), rating 0-5 (rice flat sedge; 320 g/ha): 5 (Herbicidal rate of 90% or more (almost completely withered)) | N: redroot pigweed, herbicidal effect rating (redroot pigweed; AAH 320 g/ha): 3 (Herbicidal rate of 40% or more and less than 70%) | herbicidal effect on H (barnyard grass), rating 0-5 (barnyard grass [5]; 320 g/ha): 4 (Herbicidal rate of 70% or more and less than 90%) | herbicidal effect rating, B: Japanese bulrush (Japanese bulrush; AAH 320 g/ha): 3 (Herbicidal rate of 40% or more and less than 70%)
